These results are taken from EP1961762A1, “Inhibitors of protein phosphatase 1/GADD34, preparation and uses thereof” (Institut Gustave Roussy, priority 2007, dated 2008).

Entries after “also recorded” stand apart in the source; their conditions may differ.

Data set [1] deals with CT26 tumours. Kind of data set: Intratumoural treatment of established CT26 tumours, immunocompetent mice.
Description: (§2) All animals were maintained in specific pathogen-free conditions and all experiments followed the FELASA guidelines. […] Tumours were evaluated weekly, using a caliper. In a series of experiments, BALB/c (wild type or nu/nu) carrying palpable CT26 tumours (implanted 14 days before for wild type or 7 days before for nu/nu mice by injection of 10^6 tumour cells) received a single intratumoural injection of 100 µM PBS containing the same concentration of anti-cancer agents and PP1/GADD34 inhibitors as those used in vitro, as well as rCRT (15 µg).
The subject of another data set is CT26 tumour cells. Kind of data set: Anti-tumour vaccination with dying treated CT26 tumour cells, challenge with live tumour cells. Type of data set: in vivo, BALB/c mice. The following applies: for immunogenic apoptosis / immunogenic cell death (protection against tumour growth): dying CT26 cells treated with the agent injected into one flank, live tumour cells into the opposite flank 8 days later.

In data set [2] the test system is CRT. Nature of the data set: Fluorescence detection of cell surface CRT on CT26 cells. Type of data set: cell-based, murine. Here is the method:
CT26 cells were cultured at 37°C under 5% CO2 in RPMI 1640 medium supplemented with 10% FCS, penicillin, streptomycin, 1 mM pyruvate and 10 mM HEPES in the presence of doxorubicin (DX; 24 h, 25 µM), mitoxantrone (Mitox; 24h, 1 µM, Sigma), idarubicin (24h, 1 µM, Aventis, France), mitomycin C (30 µM, 48 h; Sanofi-Synthelabo, France), and/or zVAD-fmk (50 µM, 24 h; Bachem), tunicamycin (24h, 65 µM), thapsigargin (24h, 30µM), brefeldin A (24h, 50 µM, Sigma), etoposide (48h, 25µM, Tava classics), MG132 (48h, 10 µM), ALLN (48h, […]), betulinic acid (24h, 10 µM), Hoechst 33343 (24h, 0,2µM), camptothecine (24h, 15 µM), lactacystin (48h, 60 µM), BAY 11-8072 (24h, 30µM), staurosporine (24h, 1.5 µM), bafilomycin A1 (48h, 300 nM), arsenic trioxide (24h, 30µM), C2-ceramide (C2-C; 24h, 60 µM,), calyculin A (48h, 30nM), or tautomycin (48h, nM, Sigma) and/or salubrinal (48h, µM, Calbiochem).
(§1) CT26 cells (on a glass slide or in 12-well plates) were first washed with FACS buffer (1× PBS, 5% fetus bovine serum, and 0.1% sodium azide) and then incubated with rabbit anti-mouse CRT antibody (1:100, Stressgen) in FACS buffer at 4 °C for 30 min. Cells reacted with anti-rabbit IgG (H+L) Alexa fluor 488-conjugates (1:500) in FACS buffer at 4 °C for 30 min. After washing three times with FACS buffer, surface CRT was detected by cytofluorometric analysis on a FACS Vantage. In some experiments, cells were fixed with 4% paraformaldehyde, counterstained with Hoechst (2µM; Sigma), followed by fluorescence microscopic assessment with a Leica IRE2 microscope equipped with a DC300F camera.

In data set [3] the test system is CT26 tumours. Kind of data set: Intratumoural treatment of established CT26 tumours, nu/nu mice.
Description: as §2
For data set [4], the system named is ERp57. Kind of data set: Flow cytometric detection of surface ERp57. Type of data set: cell-based.
A further data set has as its system HeLa, A549, HCT116. Nature of the data set: CRT exposure on human tumour cell lines. Type of data set: cell-based.
In data set [5] the test system is CRT, KDEL receptor and ERp57. Kind of data set: Double immunofluorescence staining of CRT, KDEL receptor and ERp57. The class given is cell-based. The following applies: HeLa cells, 1 µM, 2h.
A further data set concerns MCA205, B16F10, J558. Kind of data set: CRT exposure on murine tumour cell lines. The class given is cell-based.
The test system of a further data set is CT26 cells. Nature of the data set: Phagocytosis of tumour cells by dendritic cells. Type of data set: cell-based, BALB/c mice. Particulars: within a few hours after treatment. Here is the method: BM cells were flushed from the tibias and femurs of BALB/c mice with culture medium composed of RPMI 1640 medium (Invitrogen Life Technologies) supplemented with 10% heat-inactivated FBS (Invitrogen), sodium pyruvate, 50 µM 2-ME (Sigma), 10 mM HEPES (pH 7.4), and penicillin/streptomycin (Invitrogen). After one centrifugation, BM cells were resuspended in Tris-ammonium chloride for 2 min to lyse RBC. After one more centrifugation, BM cells (1 x 10^6 cells/ml) were cultured in medium supplemented with 100 ng/ml recombinant mouse FLT3 ligand (R&D systems) in 6-well plates (Costar Corning). After 7 days, the non-adherent and loosely adherent cells were harvested with Versene, washed and transferred in 12-well plates (1.5 x 10^6 cells/plate) for cocultures with tumour cells.
In 12-well plates, 25 x 10^6 adherent CT26 cells were labelled with Celltracker Green (Calbiochem) and then incubated with drugs. In some experiments viable CT26 were coated with 2µg/10^6 cells of chicken anti-CRT antibody (ABR affinity bioreagents) or an isotype control for 30 min prior to washing and feeding to dendritic cells Cs. Alternatively CT26 cells were coated with 2µg/10^6 cells of rCRT on ice for 30 min and washed twice prior to addition to dendritic cells. […] Phagocytosis was assessed by FACS analysis of double positive cells. […]

The subject of data set [6] is CRT. Nature of the data set: Cell surface CRT on enucleated CT26 cells (cytoplasts). Type of data set: cell-based, murine. Here is the method:
as §1
Trypsinized CT26 cells were enucleated as described in the publication of Andreau, K. et al. Contagious apoptosis facilitated by the HIV-1 envelope. Fusion-induced cell-to-cell transmission of a lethal signal. J. Cell Sci. 117, 5643-53 (2004). Briefly, cells were treated in 2 ml of complete RPMI medium containing cytochalasin B (10µg/ml; Sigma) and DNase I (80U/ml; Sigma). […] Then the cell surface CRT was detected (see materials and methods) and the viability was determined by with propidium iodine staining (2µg/ml, Sigma) for 5 min followed by cytofluorometric analysis. […] Phagocytosis was assessed by FACS analysis of double positive cells.

Data set [7] relates to ERP57. Nature of the data set: Biotinylated surface proteins, 2D electrophoresis and mass spectroscopy. The following applies: short-term (4 h) treatment.
Data set [8] deals with CRT. The data set is described as above. The following applies: short-term (4 h) treatment.
Another data set has as its system CRT and/or ERp57. Nature of the data set: Immunofluorescence staining of unfixed human tumour cell lines. Particulars: variety of human tumour cell lines. The class given is cell-based.
Data set [9] concerns human HCT116 colon cancer cell. Kind of data set: Calreticulin exposure, immunofluorescence staining and cytofluorometric analysis. The class given is cell-based. The following applies: 2 hours.
Data set [10] deals with murine CT26 colon cancer cells. Described as above. The class given is cell-based. The following applies: 2 hours. Here is the method:
CT26 cells were cultured for 24 hours in the presence of the indicated agents for 24hrs, as described in Materials and Methods, and then were stained with Annexin V-FITC and the vital dye DAPI. • Fig. 1B: Identification of immunogenic cell death inducers. CT26 cells cultured as in Fig.1A were injected into the left flank, followed by injection of life tumour cells in the right flank 8 days later. The percentage of tumour free mice was determined 120 days later as in Fig.1C. • Fig. 1C: Incidence of tumours after inoculation of dying cells. Day 1 was considered the day of inoculation of dying tumour cells, 1 week before challenge with […]. • Fig. 1S. Dissociation of CRT exposure and phosphatidyl serine exposure. • Fig. 1SA, Fig. 1SB: Kinetics of CRT exposure. […] Representative pictograms are shown in Fig.1SA and quantitative data are reported in Fig.1SB. • Fig. 1SC, Fig. 1SD: Kinetics of PS exposure and cell death. […] Note that the nuclei of untreated cells were visualized with Hoechst 33342 (blue), while those of doxorubicin-treated cells emit a red fluorescence (Fig.2D). […] The surface exposure of CRT was determined by immunoflurorescence cytometry while gating on viable (propidium iodine-negative) cells (inserts) and was correlated with the immunogenicity of cell death (as determined in Fig. 1). […]

On to `CO[C@H]([C@H](O)CC(=O)[C@@H](C)[C@@H](O)CC[C@@H](C)[C@@H]1O[C@]2(CC[C@@H](C)[C@H](CC[C@H](C)C(C)=O)O2)CC[C@@H]1C)[C@H](OC(=O)C[C@@H](O)C1=C(C)C(=O)OC1=O)C(C)C` [tautomycin], for which, in the data set on CT26 tumours [1] (mouse, in vivo), the “therapeutic effect of single agent” value is “no major therapeutic effect” and the tumour response result is listed as “stable disease or complete tumour regression”. In the data set with CT26 tumour cells (mouse, in vivo), the immunogenic cell death result is on record as “not sufficient to induce immunogenic cell death” and the “immunogenic potential of cells succumbing to etoposide” value is given as “greatly enhanced”. Also, the CRT exposure entry with CRT [2] is on record as “efficiently induced; also recorded: greatly enhanced”. Besides, the “therapeutic effect of single agent” value with CT26 tumours [3] (mouse, in vivo) is listed as “no major therapeutic effect”. In addition, the “surface exposure of ERp57” value in the data set on ERp57 [4] is listed as “stimulates the surface exposure or ERp57”.

For `O=C1c2c(O)ccc(O)c2C(=O)c2c(NCCNCCO)ccc(NCCNCCO)c21` [mitoxantrone], the CRT exposure result was “induced CRT exposure” with HeLa, A549, HCT116 and “induced CRT exposure” with MCA205, B16F10, J558. For the same molecule, the “therapeutic effect of single agent” value in the data set with CT26 tumours [1] (single intratumoural injection, 14-day-old tumours) is listed as “permanent regression in some but not all cases”; with CT26 tumours [3] (single intratumoural injection) it was “no cure”. Besides, the “immunogenic apoptosis / immunogenic cell death (protection against tumour growth)” value with CT26 tumour cells was “elicited immunogenic cell death”. Also, the “CRT exposure triggered by PP1 or GADD34 depletion” value with CRT [2] (siRNA knock-down, then mitoxantrone 2 h) is “not further enhanced”. Further, the “surface appearance of CRT, KDEL receptor and ERp57” value in data set [5] was “appear together on the surface”. The “phagocytosis of treated tumour cells by DC” value with CT26 cells was “acquired the property to be phagocytosed by DC quickly”. The “time to CRT exposure in enucleated cells (cytoplasts)” value in the data set on CRT [6] is at most 1 h.

On to `COc1cccc2c1C(=O)c1c(O)c3c(c(O)c1C2=O)C[C@@](O)(C(=O)CO)C[C@@H]3O[C@H]1C[C@H](N)[C@H](O)[C@H](C)O1` [doxorubicin], for which, in the data set on ERP57 [7], the “surface exposure of ERP57” value was “specifically induced”. In addition, in the data set with CT26 tumour cells, the “immunogenic apoptosis / immunogenic cell death (protection against tumour growth)” value was “elicited immunogenic cell death”. Further, the “induction of surface CRT (factor)” value in the data set with CRT [8] (doxorubicin alone) is 6; in the data set on CRT [8] (doxorubicin combined with Z-VAD-fmk) it was 1.8. Further, the “phagocytosis of treated tumour cells by DC” value with CT26 cells is listed as “acquired the property to be phagocytosed by DC quickly”. Further, the “exposure of CRT and/or ERp57 on the cell surface” value with CRT and/or ERp57 is listed as “Very similar results”.

Take “VKKKKIKREIKI-Ikaravafsekv [mutant control peptide]”: the exposure of calreticulin result in data set [9] and in [10] was “did not induce calreticulin exposure” throughout.
